Where two headings read alike, the source gives them in different places.
Assays:
[1] = Metabolic stability in pooled human liver microsomes with or without NADPH; assay type: in vitro ADME; conditions: human, pooled human liver microsomes, pooled human liver microsomes 0.5 mg/mL in PBS, 1 uM test compound, 37° C.
Procedure: Pooled human liver microsomes in PBS at a concentration of 0.5 mg/mL was incubated with or without 1 mM NADPH for 70 min at 37° C. Test compound was added after 10 minutes to a final concentration of 1 uM. Samples were withdrawn at 0, 5, 15 and 60 minutes and added to test tubes containing acetonitrile, to stop the reaction, and with terfenadine, used as internal standard. After centrifugation at 10000×g for 5 minutes the supernatant was diluted 1:1 with 1% formic acid. Samples were separated on a reverse phase column and detected by triple quadrupole MSMS (Agilant model 6540). The concentration of the parent compound at the different time points was measured with an external standard curve using terfenadine as internal standard and the initial metabolic rate in the presence or absence of NADPH calculated.

CYP1A = biological target: T1, CYP1A (Homo sapiens, UniProt P05177); assay: CYP inhibition in human liver microsomes (Eurofins protocol ITEMG232); assay type: in vitro ADME; conditions: 10 μM, substrate phenacetin
T1 construct: using isoform-specific substrates incubated with human liver microsomes; tissue Eurofins ITEMG232; host or cells: human liver microsomes
T1 sequence (P05177 2-516 limits assumed): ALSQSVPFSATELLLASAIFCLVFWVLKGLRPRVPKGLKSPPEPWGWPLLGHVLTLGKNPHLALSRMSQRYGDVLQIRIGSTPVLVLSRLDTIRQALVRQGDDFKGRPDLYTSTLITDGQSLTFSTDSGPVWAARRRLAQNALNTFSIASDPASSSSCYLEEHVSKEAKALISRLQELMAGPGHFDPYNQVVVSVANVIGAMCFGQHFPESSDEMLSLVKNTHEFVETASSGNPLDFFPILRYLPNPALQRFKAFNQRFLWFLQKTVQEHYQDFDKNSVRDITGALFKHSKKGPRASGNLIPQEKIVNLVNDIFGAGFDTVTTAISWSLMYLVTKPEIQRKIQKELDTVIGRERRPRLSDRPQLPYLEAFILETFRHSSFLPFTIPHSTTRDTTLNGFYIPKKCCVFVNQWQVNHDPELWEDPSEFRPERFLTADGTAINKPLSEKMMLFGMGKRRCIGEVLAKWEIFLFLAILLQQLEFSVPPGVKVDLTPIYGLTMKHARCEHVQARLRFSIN
Procedure: (§1) The following substrates were used; CYP1A phenacetin, CYP2B6 bupropion, CYP2C8 paclitaxel and amodiaquine, CYP2C9 diclofenac, CYP2C19 omeprazole, CYP2D6 dextromethorphan, CYP3A midazolam and testosterone.
(§2) At the end of the incubation, the formation of metabolite was monitored by HPLC-MS/MS as the peak area response.

CYP2B6 = biological target: T2, CYP2B6 (Homo sapiens, UniProt P20813); assay: as above; assay type: in vitro ADME; conditions: 10 μM, substrate bupropion
T2 construct: using isoform-specific substrates incubated with human liver microsomes; tissue Eurofins ITEMG232; host or cells: human liver microsomes
T2 sequence (P20813 1-491): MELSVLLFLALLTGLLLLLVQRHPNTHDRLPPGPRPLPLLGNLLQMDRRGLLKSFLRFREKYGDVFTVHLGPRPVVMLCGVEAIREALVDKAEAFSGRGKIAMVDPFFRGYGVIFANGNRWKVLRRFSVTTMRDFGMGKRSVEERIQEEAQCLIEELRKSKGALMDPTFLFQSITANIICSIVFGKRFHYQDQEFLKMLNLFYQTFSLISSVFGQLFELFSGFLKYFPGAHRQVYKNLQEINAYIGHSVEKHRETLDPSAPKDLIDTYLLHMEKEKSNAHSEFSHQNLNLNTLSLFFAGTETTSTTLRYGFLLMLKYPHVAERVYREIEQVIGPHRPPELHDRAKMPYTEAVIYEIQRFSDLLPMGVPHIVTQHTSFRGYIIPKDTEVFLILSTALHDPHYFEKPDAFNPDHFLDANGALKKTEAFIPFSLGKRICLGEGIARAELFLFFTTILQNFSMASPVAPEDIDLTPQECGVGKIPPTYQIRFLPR
Procedure: as §1, §2

CYP2C8 = biological target: T3, CYP2C8 (Homo sapiens, UniProt P10632); assay: as above; assay type: in vitro ADME; conditions: 10 μM, substrates paclitaxel and amodiaquine
T3 construct: using isoform-specific substrates incubated with human liver microsomes; tissue Eurofins ITEMG232; host or cells: human liver microsomes
T3 sequence (P10632 1-490): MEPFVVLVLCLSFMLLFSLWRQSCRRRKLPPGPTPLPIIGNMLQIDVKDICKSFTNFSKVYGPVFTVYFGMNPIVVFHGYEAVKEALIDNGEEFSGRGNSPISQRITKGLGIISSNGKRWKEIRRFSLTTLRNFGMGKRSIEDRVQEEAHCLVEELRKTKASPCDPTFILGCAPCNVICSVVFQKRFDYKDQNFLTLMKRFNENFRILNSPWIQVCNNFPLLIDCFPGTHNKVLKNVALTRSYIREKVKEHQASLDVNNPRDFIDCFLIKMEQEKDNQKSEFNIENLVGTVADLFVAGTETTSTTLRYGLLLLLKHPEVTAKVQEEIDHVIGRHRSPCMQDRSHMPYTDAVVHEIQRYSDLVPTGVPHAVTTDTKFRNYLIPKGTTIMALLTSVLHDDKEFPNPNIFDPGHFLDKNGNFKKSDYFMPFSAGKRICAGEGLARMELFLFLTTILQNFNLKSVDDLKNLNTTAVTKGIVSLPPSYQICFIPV
Procedure: as §1, §2

CYP2D6 = biological target: T4, CYP2D6 (Homo sapiens, UniProt P10635); assay: as above; assay type: in vitro ADME; conditions: 10 μM, substrate dextromethorphan
T4 construct: tissue Eurofins ITEMG232; host or cells: human liver microsomes
Procedure: as §1, §2

CYP3A4&5 = assay: CYP inhibition in human liver microsomes (Eurofins protocol ITEMG232), testosterone substrate; assay type: in vitro ADME; conditions: probe testosterone, read-out: CYP3A4&5 testosterone Inh %
Procedure: as §1, §2

CYP2C9 = CYP2C9 (Homo sapiens, UniProt P11712); assay: CYP inhibition of C21 found during development; assay type: in vitro ADME; conditions: statement in words
CYP3A4 [2] = biological target: T5, CYP3A4 (Homo sapiens, UniProt P08684); assay: CYP inhibition of C21 found during development; assay type: in vitro ADME; conditions: statement in words
[3] = Metabolic hydrolysis of C21 found during development; assay type: in vitro ADME; conditions: statement in words
CYP3A4 [4] = biological target: T5, CYP3A4; assay: CYP inhibition in human liver microsomes (Eurofins protocol ITEMG232), midazolam substrate; assay type: in vitro ADME; set-up: using isoform-specific substrates incubated with human liver microsomes; tissue Eurofins ITEMG232; host or cells: human liver microsomes; conditions: 10 μM
Procedure: as §1, §2

[5] = biological target: T6, human recombinant AT2 receptor (Homo sapiens, UniProt P50052); assay: biochemical
T6 sequence (P50052 1-363): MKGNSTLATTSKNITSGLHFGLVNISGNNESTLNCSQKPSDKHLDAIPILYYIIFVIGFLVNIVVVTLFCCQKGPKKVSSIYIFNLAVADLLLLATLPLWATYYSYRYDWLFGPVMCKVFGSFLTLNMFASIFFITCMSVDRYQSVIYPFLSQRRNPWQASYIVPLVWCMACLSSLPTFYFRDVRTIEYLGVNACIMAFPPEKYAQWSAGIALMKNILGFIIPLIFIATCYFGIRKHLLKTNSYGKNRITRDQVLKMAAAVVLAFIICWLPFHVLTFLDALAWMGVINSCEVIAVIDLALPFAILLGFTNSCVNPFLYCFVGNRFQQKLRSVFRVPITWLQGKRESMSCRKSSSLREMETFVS
Procedure: (§3) Compounds were evaluated for binding to the human recombinant AT2 and AT1 receptor according to Eurofins protocol ITEM26 and ITEM24 using a radiometric scintillation assay.

[6] = biological target: T7, human recombinant AT1 receptor (Homo sapiens, UniProt P30556); assay: biochemical
T7 sequence (P30556 1-359): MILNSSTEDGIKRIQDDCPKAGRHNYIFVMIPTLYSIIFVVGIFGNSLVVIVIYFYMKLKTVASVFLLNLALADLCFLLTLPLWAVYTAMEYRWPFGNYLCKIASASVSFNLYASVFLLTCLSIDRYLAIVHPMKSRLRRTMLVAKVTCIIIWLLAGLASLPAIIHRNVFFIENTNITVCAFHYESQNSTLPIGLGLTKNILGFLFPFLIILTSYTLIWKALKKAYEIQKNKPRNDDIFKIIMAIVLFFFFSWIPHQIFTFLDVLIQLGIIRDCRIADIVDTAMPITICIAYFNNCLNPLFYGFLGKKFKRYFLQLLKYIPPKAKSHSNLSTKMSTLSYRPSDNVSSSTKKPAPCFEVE
Procedure: as §3

T5 sequence (P08684 whole entry): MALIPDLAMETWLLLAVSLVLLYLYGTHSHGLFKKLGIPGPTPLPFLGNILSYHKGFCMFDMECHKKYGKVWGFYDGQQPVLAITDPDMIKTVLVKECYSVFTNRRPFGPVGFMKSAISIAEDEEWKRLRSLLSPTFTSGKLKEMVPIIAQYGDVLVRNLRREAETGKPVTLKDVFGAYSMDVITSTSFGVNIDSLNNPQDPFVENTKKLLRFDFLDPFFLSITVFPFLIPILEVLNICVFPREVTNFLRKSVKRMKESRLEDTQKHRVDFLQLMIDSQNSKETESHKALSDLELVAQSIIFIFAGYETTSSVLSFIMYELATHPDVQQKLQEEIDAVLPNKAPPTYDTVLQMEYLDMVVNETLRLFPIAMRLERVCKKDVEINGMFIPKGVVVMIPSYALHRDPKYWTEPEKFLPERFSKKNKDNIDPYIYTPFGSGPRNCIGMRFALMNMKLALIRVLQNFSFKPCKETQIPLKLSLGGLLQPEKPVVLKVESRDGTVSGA
Chain of CYP2C9 (P11712 whole entry): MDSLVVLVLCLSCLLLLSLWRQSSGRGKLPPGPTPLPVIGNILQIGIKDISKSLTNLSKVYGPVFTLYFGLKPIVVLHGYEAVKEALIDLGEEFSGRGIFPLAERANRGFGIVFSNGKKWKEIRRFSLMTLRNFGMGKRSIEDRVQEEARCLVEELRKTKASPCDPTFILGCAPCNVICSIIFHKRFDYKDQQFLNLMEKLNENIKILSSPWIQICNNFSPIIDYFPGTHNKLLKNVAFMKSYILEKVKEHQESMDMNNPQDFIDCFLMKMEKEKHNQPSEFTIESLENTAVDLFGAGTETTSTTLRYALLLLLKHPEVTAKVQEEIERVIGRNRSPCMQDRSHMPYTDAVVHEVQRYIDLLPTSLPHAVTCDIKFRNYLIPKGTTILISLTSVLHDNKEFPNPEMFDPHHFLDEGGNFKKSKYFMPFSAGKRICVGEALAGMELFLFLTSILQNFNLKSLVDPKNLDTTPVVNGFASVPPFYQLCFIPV
T4 sequence (P10635 whole entry): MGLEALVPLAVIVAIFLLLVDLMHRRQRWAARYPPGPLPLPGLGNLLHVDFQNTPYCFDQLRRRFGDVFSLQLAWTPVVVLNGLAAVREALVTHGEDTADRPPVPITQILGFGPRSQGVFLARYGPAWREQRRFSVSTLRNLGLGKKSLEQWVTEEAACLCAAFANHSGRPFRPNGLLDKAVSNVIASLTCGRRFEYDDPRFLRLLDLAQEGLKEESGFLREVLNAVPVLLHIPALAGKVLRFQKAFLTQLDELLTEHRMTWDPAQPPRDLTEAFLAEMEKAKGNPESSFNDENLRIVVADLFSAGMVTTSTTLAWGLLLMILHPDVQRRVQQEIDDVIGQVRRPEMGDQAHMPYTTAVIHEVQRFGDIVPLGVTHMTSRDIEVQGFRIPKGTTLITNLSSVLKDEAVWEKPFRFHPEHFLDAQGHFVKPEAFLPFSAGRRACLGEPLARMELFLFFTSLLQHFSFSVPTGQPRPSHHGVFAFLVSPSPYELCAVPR

| half-life at 1 uM ([1]; with 1 mM NADPH, read-out: T1/2, +NaDPH) | half-life at 1 uM ([1]; without NADPH, read-out: T1/2, no NaDPH) | CYP1A Inh % (CYP1A) | CYP2B6 Inh % (CYP2B6) | CYP2C8 Inh % (CYP2C8) | CYP2D6 Inh % (CYP2D6) | inhibition at 10 µM (CYP3A4&5) | inhibition of CYP 2C9 (CYP2C9) | inhibition of CYP 3A4 (CYP3A4 [2]) | hydrolysis to an inactive sulfonamide metabolite [3] | CYP3A4 midazolam Inh % (CYP3A4 [4]) | IC50 [5] | IC50 [6] | SMILES |
| --- | --- | --- | --- | --- | --- | --- | --- | --- | --- | --- | --- | --- | --- |
| 35 min | 31 min | 91% | 49% | 80% | 81% | 94% | potent inhibitor | potent inhibitor | rapidly hydrolysed | 95% |  |  | CCCCOC(=O)NS(=O)(=O)c1sc(CC(C)C)cc1-c1ccc(Cn2ccnc2)cc1 [Example C21, N-butyloxycarbonyl-3-(4-imidazol-1-ylmethylphenyl)-5-isobutylthiophene-2-sulfon-amide, reference compound] |
|  |  |  |  |  |  |  |  |  |  |  | 3.4 nM | > 1000 nM | Cc1nccn1Cc1ccc(-c2cc(CC(C)C)sc2S(=O)(=O)NC(=O)OCCOc2ccccc2)cc1F [Example 9, 2-Phenoxyethyl (3-(3-fluoro-4-((2-methylimidazol-1-yl)methyl]phenyl)-5-isobutyl-2-thienyl)sulfonylcarbamate] |

Reference: patent US20230348444A1, “NOVEL COMPOUNDS FOR USE IN THE TREATMENT OF DISEASES ASSOCIATED WITH ANGIOTENSIN II” (Vicore Pharma AB, priority 2020, published 2023)
